Read-outs that look alike come from different tables or passages of the source.
Molecular target: T1, human LPA1 (Homo sapiens, UniProt Q92633)
T1 construct: expressed in transfected cells; host or cells: CHO-K1
Test: In vitro LPA1 calcium flux antagonist assay - Bioduro protocol
Format: cell-based
Conditions: CHO-K1 cells overexpressing human LPA1 and G15a, LPA challenge at EC80
Experimental: In Vitro LPA1 Calcium Flux Antagonist Assay—Bioduro Protocol
CHO-K1 cells overexpressing human LPA1 and G15a were seeded at a total volume of 20 μL (15000 cells/well) into Matrigel pre-coated 384-well plates (corning −3764) and incubated at 37° C. After overnight incubation, the cells were serum starved for 4 h. Assays were performed in dye loading buffer containing 1× Fluo-8 AM (AAT Bioquest, 21080) and 2.5 mM probenecid (Thermo Fisher, 36400) in HBSS/20 mM Hepes. After cell starvation, the medium was replaced with 20 μL of dye loading buffer and incubated at 37° C., for 30 min. Then 5 μL of 5× compound titrated in dye loading buffer was added to the cells and incubated for 30 min followed by LPA challenge at EC80. Calcium mobilization was measured on a FLIPR Tetra (MSD). For LPA EC80 determination, starved cells were incubated with 20 μL of dye loading buffer for 1 h, then 5 μL of 5×LPA titrated in dye loading buffer was added to the cells. Calcium signals induced by LPA was monitors on a FLIPR.
Percentage inhibition is calculated using the following formula: % Inhibition=100%×(1−(mean RFU of test sample−mean RFU of DMSO)/(mean RFU of LPA control−mean RFU of DMSO)).
Table B3 and Table B4 show the biological activity of compounds in in vitro LPA1 Calcium flux antagonist assay—Bioduro protocol.

[1] = calcium mobilization on FLIPR Tetra, read-out: IC50
[2] = Table B3, read-out: Activity (IC50 class)

T1 sequence (Q92633 whole entry): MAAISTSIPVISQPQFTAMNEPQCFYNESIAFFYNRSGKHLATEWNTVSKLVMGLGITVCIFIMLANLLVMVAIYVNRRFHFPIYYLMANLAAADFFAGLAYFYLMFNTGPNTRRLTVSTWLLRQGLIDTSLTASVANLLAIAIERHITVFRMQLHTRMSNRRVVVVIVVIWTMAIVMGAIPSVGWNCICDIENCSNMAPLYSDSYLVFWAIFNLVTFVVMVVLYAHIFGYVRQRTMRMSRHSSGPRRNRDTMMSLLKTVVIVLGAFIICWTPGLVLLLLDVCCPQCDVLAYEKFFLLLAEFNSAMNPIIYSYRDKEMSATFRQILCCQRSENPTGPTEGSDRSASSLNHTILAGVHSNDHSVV

IC50 [1] [nM] | IC50 [2] [nM] | SMILES
163 | 100 to 1000 | COc1cc(-c2ccc(NC3(C(=O)O)CCOCC3)cc2CO[C@@H]2CCC[C@H]2OC)c(C)c(OC)c1C (racemic) [Compound 204]
46.3 | < 100 | COc1cc(OC)cc(-c2ccc(NC3(C(=O)O)CCOCC3)cc2COC2COc3ccccc32)c1 (single isomer, unassigned) [Compound 158]
> 10000 | > 1000 | COc1cc(OC)cc(-c2ccc(NC3(C(=O)O)CCOCC3)cc2COC2COc3ccccc32)c1 (single isomer, unassigned) [Compound 159]
64.3 | < 100 | COc1cc(-c2ccc(NC3(C(=O)O)CCOCC3)cc2CCC2CCOC2)cc(OC)c1C (single isomer, unassigned) [Compound 186, 4-((3′,5′-dimethoxy-4′-methyl-2-(2-(tetrahydrofuran-3-yl)ethyl)-[1,1′-biphenyl]-4-yl)amino)tetrahydro-2H-pyran-4-carboxylic acid]
772 | 100 to 1000 | COc1cc(-c2ccc(NC3(C(=O)O)CCCOC3)cc2COC2CCCC2)c(C)c(OC)c1C (single isomer, unassigned) [Compound 200]
73.2 | < 100 | COc1cc(-c2ccc(NC3(C(=O)O)CCCOC3)cc2COC2CCCC2)c(C)c(OC)c1C (single isomer, unassigned) [Compound 201]
18.6 | < 100 | COc1cc(-c2ccc(NC3(C(=O)O)CCOCC3)cc2COC2COc3ccccc32)cc(OC)c1C (single isomer, unassigned) [Compound 216]
584 | 100 to 1000 | COc1cc(-c2ccc(NC3(C(=O)O)CCOCC3)cc2COC2COc3ccccc32)cc(OC)c1C (single isomer, unassigned) [Compound 217]
4.76 | < 100 | COc1cc(-c2ccc(NC3(C(=O)O)CCOCC3)cc2COC2COc3ccccc32)c(F)c(OC)c1C (single isomer, unassigned) [Compound 223]
158 | 100 to 1000 | COc1cc(-c2ccc(NC3(C(=O)O)CCOCC3)cc2COC2COc3ccccc32)c(F)c(OC)c1C (single isomer, unassigned) [Compound 224]
63.6 | < 100 | COc1cc(-c2ccc(NC3(C(=O)O)CCC(C)(OC)CC3)cc2COC2CCCC2)c(F)c(OC)c1C (single isomer, unassigned) [Compound 237]
268 | 100 to 1000 | COc1cc(-c2ccc(NC3(C(=O)O)CCC(C)(OC)CC3)cc2COC2CCCC2)c(F)c(OC)c1C (single isomer, unassigned) [Compound 238]
87 | 100 to 1000 | COc1c(C(C)OC)ccc(-c2ccc(NC3(C(=O)O)CCOCC3)cc2COC2CCCC2)c1C (single isomer, unassigned) [Compound 241]
266 | 100 to 1000 | COc1c(C(C)OC)ccc(-c2ccc(NC3(C(=O)O)CCOCC3)cc2COC2CCCC2)c1C (single isomer, unassigned) [Compound 242]
31.4 | < 100 | COc1cc(-c2ccc(NC3(C(=O)O)CN(C(C)=O)C3)cc2COC2Cc3ccccc3C2)cc(OC)c1C [Compound 128]
17.2 | < 100 | COC(=O)N1CC(Nc2ccc(-c3cc(OC)c(C)c(OC)c3)c(COC3Cc4ccccc4C3)c2)(C(=O)O)C1 [Compound 129]
191 | 100 to 1000 | COc1cc(-c2ccc(NC3(C(=O)O)CC(O)C3)cc2COC2Cc3ccccc3C2)cc(OC)c1C (stereo not shown) [Compound 130]
190 | 100 to 1000 | COc1cc(-c2ccc(NC3(C(=O)O)CC(O)C3)cc2COC2Cc3ccccc3C2)cc(OC)c1C (stereo not shown) [Compound 131]
20.1 | < 100 | COc1cc(-c2ccc(NC3(C(=O)O)CCOCC3)cc2CCC2(C)Oc3ccccc3O2)cc(OC)c1C [Compound 132, 4-({3′,5′-dimethoxy-4′-methyl-2-[2-(2-methyl-1,3-benzodioxol-2-yl)ethyl]-[1,1′-biphenyl]-4-yl}amino)oxane-4-carboxylic acid]
82.9 | < 100 | COc1cc(-c2ccc(NC3(C(=O)O)CCN(C(C)=O)CC3)cc2COC2Cc3ccccc3C2)cc(OC)c1C [Compound 133]
90.6 | < 100 | COc1cc(-c2ccc(NC3(C(=O)O)CCOCC3)cc2COC2CCCC2)cc(OC)c1C [Compound 134, 4-({2-[(cyclopentyloxy)methyl]-3′,5′-dimethoxy-4′-methyl-[1,1′-biphenyl]-4-yl}amino)-oxane-4-carboxylic acid]

Further lines, the compound ahead of its results:

SMILES | IC50 [1] [nM] | IC50 [2] [nM]
COc1cc(-c2ccc(NC3(C(=O)O)CC(OC)C3)cc2COC2Cc3ccccc3C2)cc(OC)c1C (single isomer, unassigned) [Compound 125] | 116 | 100 to 1000
COc1cc(-c2ccc(NC3(C(=O)O)CC(OC)C3)cc2COC2Cc3ccccc3C2)cc(OC)c1C (single isomer, unassigned) [Compound 126] | 32.1 | < 100
COc1cc(-c2ccc(NCCC(=O)O)cc2COCCc2ccccc2)cc(OC)c1C [Compound 106] | 3480 | > 1000
COc1cc(-c2ccc(N(C)CCC(=O)O)cc2COC2Cc3ccccc3C2)cc(OC)c1C [Compound 107] | 2580 | > 1000
COc1cc(-c2ccc(NCC(=O)O)cc2COC2Cc3ccccc3C2)cc(OC)c1C [Compound 108] | 1880 | > 1000
COc1cc(-c2ccc(NC3(C(=O)O)CCC3)cc2COC2Cc3ccccc3C2)cc(OC)c1C [Compound 110, 1-((2-(((2,3-dihydro-1H-inden-2-yl)oxy)methyl)-3′,5′-dimethoxy-4′-methyl-[1,1′-biphenyl]-4-yl)amino)cyclobutane-1-carboxylic acid] | 152 | 100 to 1000
COc1cc(-c2ccc(NC3(C(=O)O)CCOCC3)cc2COC2Cc3ccccc3C2)cc(OC)c1C [Compound 111, 4-({2-[(2,3-dihydro-1H-inden-2-yloxy)methyl]-3′,5′-dimethoxy-4′-methyl-[1,1′-biphenyl]-4-yl}amino)oxane-4-carboxylic acid] | 19.8 | < 100
COc1cc(-c2ccc(NC3(C(=O)O)CCCC3)cc2COC2Cc3ccccc3C2)cc(OC)c1C [Compound 112] | 188 | 100 to 1000
CCOc1cc(-c2ccc(NCCC(=O)O)cc2COC2Cc3ccccc3C2)cc(OCC)c1C [Compound 113] | 7130 | > 1000
COc1cc(-c2ccc(NCCC(=O)O)cc2OCC2(C)Oc3ccccc3O2)cc(OC)c1C [Compound 115] | 6820 | > 1000
COc1cc(-c2ccc(NCC(C)C(=O)O)cc2COC2Cc3ccccc3C2)cc(OC)c1C (stereo not shown) [Compound 116] | 2160 | > 1000
COc1cc(-c2ccc(OC3(C(=O)O)CC3)cc2COC2Cc3ccccc3C2)cc(OC)c1C [Compound 117, 1-({2-[(2,3-dihydro-1H-inden-2-yloxy)methyl]-3′,5′-dimethoxy-4′-methyl-[1,1′-biphenyl]-4-yl}oxy)cyclopropane-1-carboxylic acid] | 60.5 | < 100
COc1cc(-c2ccc(C3(C(=O)O)CC3)cc2COC2Cc3ccccc3C2)cc(OC)c1C [Compound 118, 1-{2-[(2,3-dihydro-1H-inden-2-yloxy)methyl]-3′,5′-dimethoxy-4′-methyl-[1,1′-biphenyl]-4-yl}cyclopropane-1-carboxylic acid] | 96.4 | < 100
COc1cc(-c2ccc(NC3(C(=O)O)C[C@@H]3C)cc2COC2Cc3ccccc3C2)cc(OC)c1C (stereo partly drawn) [Compound 119, (2S)-1-((2-(((2,3-dihydro-1H-inden-2-yl)oxy)methyl)-3′,5′-dimethoxy-4′-methyl-[1,1′-biphenyl]-4-yl)amino)-2-methylcyclopropane-1-carboxylic acid] | 35.6 | < 100
COc1cc(-c2ccc(NC3(C(=O)O)CC(F)(F)C3)cc2COC2Cc3ccccc3C2)cc(OC)c1C [Compound 120] | 57 | < 100
COc1cc(-c2ccc(NC3(C(=O)O)CC3)cc2COC2Cc3ccccc3C2)cc(OC)c1C(C)=O [Compound 121, 1-({4′-acetyl-2-[(2,3-dihydro-1H-inden-2-yloxy)methyl]-3′,5′-dimethoxy-[1,1′-biphenyl]-4-yl}amino)cyclopropane-1-carboxylic acid] | 13.5 | < 100
COc1cc(-c2ccc(NC3(C(=O)O)CC3)cc2COC2Cc3ccccc3C2)c(C)c(OC)c1C(C)=O [Compound 122] | 112 | 100 to 1000
COc1cc(-c2ccc(NC3(C(=O)O)CCOCC3)cc2COC2Cc3ccccc3C2)cc(OC)c1C(C)=O [Compound 123] | 14.8 | < 100
COc1cc(-c2ccc(NC3(C(=O)O)CCOCC3)cc2COC2CCCC2)cc(OC)c1C(C)=O [Compound 124] | 91.6 | < 100
COc1cc(-c2ccc(NC3(C(=O)O)CCOCC3)cc2COC2Cc3ccccc3C2)cc(OC)c1C#N [Compound 127] | 16.3 | < 100

— patent US11884627B2, “Compounds and compositions for treating conditions associated with LPA receptor activity” (Lhotse Bio, Inc., priority 2022, dated 2024)
